These results are taken from patent US11135212B2, “Method for treating osteoporosis, osteopenia or low bone mineral density” (Altum Pharmaceuticals Inc., priority 2009, dated 2021).

Test [1] concerns ovariectomized rats. Description: Tibial bone mineral density by dual-energy X-ray absorptiometry in ovariectomized rats. The class given is in vivo, Sprague-Dawley female rats. Particulars: 15 mg/kg oral, day one through day five of each week (daily), 32 days after first administration; FIG. 3. How it is done:
(§1) The Sprague-Dawley female rats (100-125 gram, about 12 weeks old) were purchased from Taconic (Hudson, N.Y.). They were divided into 5 groups of 8 rats each. Four groups were ovariectomized, and one group was sham-operated. The rats were treated in the following manner: Group 1 ovariectomized rats were orally administered day one through day five of each week with 15 mg/kg tris(8-quinolinolato)gallium(III) (“daily”); Group 2 ovariectomized rats were treated with 75 mg/kg tris(8-quinolinolato)gallium(III) on day one of each week (“weekly”); Group 3 ovariectomized rats were treated with 38 mg/kg Ga(NO3)3 on day one of each week (“weekly”); Group 4 ovariectomized rats were treated with vehicle only (0.1% carboxymethylcellulose); Group 5 rats were sham-operated and were administered with vehicle only (0.1% carboxymethylcellulose). At the end of the experiment (32 days after the first administration of the compounds), the animals were anesthetized. Areal bone mineral density (BMD) and bone mineral content (BMC) were measured for the tibiae by dual-energy X-ray absorptiometry using an X-ray pixiMUS mouse densitometer.

Test [2] concerns cathepsin K gene expression. Description: Osteoclast marker gene expression by real time RT-PCR: cathepsin K. The class given is cell-based, mouse (C57BL/6). The note with it: osteoclasts treated with drug vs DMSO; FIG. 2. How it is done: (§2) Mouse bone marrow cells were flushed out from femora and tibiae of two 1-2-month old mice (C57BL/6), plated in culture medium (alpha MEM supplemented with 10% heat-inactivated fetal bovine serum, 100 international units/ml penicillin, 100 μg/ml streptomycin, and 2 mM L-glutamine) in a 100-mm dish, and incubated at 37° C. in 5% CO2 overnight. The next day, the non-adherent cells were pelleted and seeded at a density of 200,000 cells/cm^2. Then the osteoclast precursors were cultured in the presence of sRANKL (30 ng/ml) and M-CSF (30 ng/ml), and were treated with either tris(8-quinolinolato)gallium(III) or GaNO3 or DMSO (as a control). The medium was changed at day 3 to obtain mature osteoclasts at day 6. […] At the end of the treatment, the osteoclast preparations were stained for TRAP activity using a leukocyte acid phosphatase kit from Sigma and counted for TRAP-staining multinucleated cells. […] The number of cells having more than 3 nuclei was counted.
(§3) RNA was also isolated for gene expression analysis of osteoclast marker genes (TRAP, cathepsin K and NFAT2). Total RNA was extracted from osteoclasts treated with DMSO or tris(8-quinolinolato)gallium(III), and mRNAs were measured using real time RT-PCR. The relative levels of mRNAs were normalized to β-actin and then expressed as fold stimulation over DMSO-treated cells.

Test [3] relates to osteoclast precursors (mouse bone marrow cells). Description: Osteoclast differentiation/formation: count of TRAP-staining multinucleated cells from osteoclast precursors cultured with sRANKL and M-CSF. The class given is cell-based, mouse (C57BL/6). Particulars: 0.2 nM to 100 μM, day 6, TRAP-stained cells with more than 3 nuclei; p<0.05 compared with DMSO and GaNO3 (3.9 μM, 39 μM); FIG. 1. How it is done: Mouse bone marrow cells were flushed out from femora and tibiae of two 1-2-month old mice (C57BL/6), plated in culture medium (alpha MEM supplemented with 10% heat-inactivated fetal bovine serum, 100 international units/ml penicillin, 100 μg/ml streptomycin, and 2 mM L-glutamine) in a 100-mm dish, and incubated at 37° C. in 5% CO2 overnight. The next day, the non-adherent cells were pelleted and seeded at a density of 200,000 cells/cm^2. Then the osteoclast precursors were cultured in the presence of sRANKL (30 ng/ml) and M-CSF (30 ng/ml), and were treated with either tris(8-quinolinolato)gallium(III) or GaNO3 or DMSO (as a control). The medium was changed at day 3 to obtain mature osteoclasts at day 6. For treatment with tris(8-quinolinolato)gallium(III), a drug stock solution prepared by dissolving tris(8-quinolinolato)gallium(III) in DMSO was added to the cell cultures to arrive at final concentrations of 0.2 nM, 2 nM, 0.02 μM, 0.2 μM, 2 μM, 20 μM, 50 μM, or 100 μM. At the end of the treatment, the osteoclast preparations were stained for TRAP activity using a leukocyte acid phosphatase kit from Sigma and counted for TRAP-staining multinucleated cells. Specifically, TRAP staining was performed and five areas of each well were photographed. The number of cells having more than 3 nuclei was counted.

Test [4] deals with NFAT2 gene expression. Description: Osteoclast marker gene expression by real time RT-PCR: NFAT2. Type of test: cell-based, mouse (C57BL/6). The note with it: osteoclasts treated with drug vs DMSO; FIG. 2. How it is done:
as §2, §3
(In general: Quantitative PCR measures a nucleic acid by following its amplification.)

For test [5], the system named is TRAP gene expression. In words: Osteoclast marker gene expression by real time RT-PCR: TRAP. Particulars: osteoclasts treated with drug vs DMSO; FIG. 2. The class given is cell-based, mouse (C57BL/6). How it is done:
as §2, §3

Test [6] has as its system ovariectomized rats. Description: Serum osteocalcin by ELISA in ovariectomized rats. Type of test: in vivo, Sprague-Dawley female rats. The note with it: daily drug (15 mg/kg oral, day one through day five of each week), FIG. 4. How it is done:
as §1
Blood was drawn from the rats and left at room temperature for at least 30 minutes before centrifuging at 200×g for 10 minutes to separate sera. Serum was used for the measurement of serum markers including osteocalcin. Osteocalcin was measured by ELISA. […]

As for `[Ga+3].[O-]c1cccc2cccnc12.[O-]c1cccc2cccnc12.[O-]c1cccc2cccnc12` [tris(8-quinolinolato)gallium(III)], the “bone mineral density (tibiae) compared to ovariectomized untreated rats” value in test [1] is “increased bone mineral density”. In addition, in test [2], the “cathepsin K gene expression (mRNA normalized to β-actin, fold over DMSO-treated cells)” value is recorded as “significantly inhibited”. For the same compound, the “fusion of osteoclast precursors into multinucleated cells (osteoclast differentiation/formation)” value in test [3] is reported as “significantly inhibits”. Besides, the “NFAT2 gene expression (mRNA normalized to β-actin, fold over DMSO-treated cells)” value in test [4] is on record as “significantly inhibited”. The “TRAP gene expression (mRNA normalized to β-actin, fold over DMSO-treated cells)” value in test [5] is given as “significantly inhibited”. Besides, in test [6], the “serum osteocalcin compared to ovariectomized rats treated with vehicle only” value is given as “significantly associated with reduced serum osteocalcin”.
